# Patent US8101768B2, “Cyclic amine compound and pest control agent” (Nippon Soda Co., Ltd., priority 2004, dated 2012)
# Tested on: organophosphorous agent resistant two-spotted spider mites
# Test: Effect on Two-spotted Spider Mite (spray on kidney bean leaves)
# Assay type: in vivo
# Details: 125 ppm, water dispersible powder of Formulation Example 1 sprayed, 17 female adults, 25° C., 65% humidity, 3 days
# Excerpt: Effect on Two-spotted Spider Mite
# 17 female adults of organophosphorous agent resistant two-spotted spider mites were inoculated onto the first leaves of kidney beans seeded onto 3.5 inch pots and germinated 7 to 10 days before, onto which each of liquid agents, diluted with water so as to adjust the respective concentration of the chemical compounds to 125 ppm according to the formulation of the water dispersible powder shown in the aforementioned Formulation Example 1, was sprayed. After they were left in a thermostatic chamber at 25° C. in 65% humidity for 3 days, the rate of killed adults was investigated. The examination was repeated twice. As the results, the following chemical compounds killed 100% of the adults.
smiles,measurement,value
CC=CCOc1cc(C(F)(F)F)ccc1OC1CC2CCC(C1)N2c1ccc(C(F)(F)F)cn1 (mixture of isomers) [2-145],rate of killed adults,100%
FC(F)(F)c1ccc(N2C3CCC2CC(Oc2ccc(C(F)(F)F)cc2OCC=CCl)C3)nc1 (mixture of isomers) [2-148],rate of killed adults,100%
CC=NOc1cc(C(F)(F)F)ccc1OC1CC2CCC(C1)N2c1ccc(C(F)(F)F)cn1 (mixture of isomers) [2-213],rate of killed adults,100%
CCC(C)=NOc1cc(C(F)(F)F)ccc1OC1CC2CCC(C1)N2c1ccc(C(F)(F)F)cn1 (mixture of isomers) [2-226],rate of killed adults,100%
FC(F)(F)c1ccc(N2CCC(Oc3ccc(Cl)cc3)CC2)nc1 [1-10],rate of killed adults,100%
FC(F)(F)c1ccc(N2CCC(Oc3c(Cl)cc(C(F)(F)F)cc3Cl)CC2)nc1 [1-16],rate of killed adults,100%
CCCOc1cc(C(F)(F)F)cc(Cl)c1OC1CCN(c2ccc(C(F)(F)F)cn2)CC1 [1-18],rate of killed adults,100%
FC(F)(F)c1ccc(N2CCC(Oc3ccc(Br)cc3)CC2)nc1 [1-19],rate of killed adults,100%
N#Cc1ccc(OC2CCN(c3ccc(C(F)(F)F)cn3)CC2)cc1 [1-29],rate of killed adults,100%
Cc1ccc(OC2CCN(c3ccc(C(F)(F)F)cn3)CC2)c(C)c1 [1-44],rate of killed adults,100%
Cc1cc(C)c(OC2CCN(c3ccc(C(F)(F)F)cn3)CC2)c(C)c1 [1-47],rate of killed adults,100%
Cc1cc(F)ccc1OC1CCN(c2ccc(C(F)(F)F)cn2)CC1 [1-48],rate of killed adults,100%
Cc1cc(Cl)ccc1OC1CCN(c2ccc(C(F)(F)F)cn2)CC1 [1-49],rate of killed adults,100%
CCCc1cc(Cl)ccc1OC1CCN(c2ccc(C(F)(F)F)cn2)CC1 [1-57],rate of killed adults,100%
CCC(O)c1cc(C(F)(F)F)ccc1OC1CCN(c2ccc(C(F)(F)F)cn2)CC1 (centres unmarked) [1-67],rate of killed adults,100%
CC=Cc1cc(C(F)(F)F)ccc1OC1CCN(c2ccc(C(F)(F)F)cn2)CC1 [1-73],rate of killed adults,100%
FC(F)(F)c1ccc(N2CCC(Oc3cccc(C(F)(F)F)c3)CC2)nc1 [1-76],rate of killed adults,100%
FC(F)(F)c1ccc(N2CCC(Oc3ccc(C(F)(F)F)cc3CCl)CC2)nc1 [1-81],rate of killed adults,100%
CCC(Cl)c1cc(C(F)(F)F)ccc1OC1CCN(c2ccc(C(F)(F)F)cn2)CC1 (centres unmarked) [1-82],rate of killed adults,100%
CCOc1cc(C(F)(F)F)ccc1OC1CCN(c2ccc(Cl)cn2)CC1 [1-90],rate of killed adults,100%
CCOc1cc(C(F)(F)F)ccc1OC1CCN(c2ccc(Br)cn2)CC1 [1-91],rate of killed adults,100%
CCCCOc1cc(C(F)(F)F)ccc1OC1CCN(c2ccc(C(F)(F)F)cn2)CC1 [1-101],rate of killed adults,100%
COCCOc1cc(C(F)(F)F)ccc1OC1CCN(c2ccc(C(F)(F)F)cn2)CC1 [1-115],rate of killed adults,100%
COCOCCOc1cc(C(F)(F)F)ccc1OC1CCN(c2ccc(C(F)(F)F)cn2)CC1 [1-117],rate of killed adults,100%
OCCOc1cc(C(F)(F)F)ccc1OC1CCN(c2ccc(C(F)(F)F)cn2)CC1 [1-118],rate of killed adults,100%
FC(F)(F)c1ccc(N2CCC(Oc3ccc(C(F)(F)F)cc3OCCBr)CC2)nc1 [1-139],rate of killed adults,100%
C=C=COc1cc(C(F)(F)F)ccc1OC1CCN(c2ccc(C(F)(F)F)cn2)CC1 [1-143],rate of killed adults,100%
[O-][S+](c1ccc(OC2CCN(c3ccc(C(F)(F)F)cn3)CC2)cc1)C(F)(F)F (centres unmarked) [1-150],rate of killed adults,100%
C#CCOc1cc(C(F)(F)F)ccc1OC1CCN(c2ccc(C(F)(F)F)cn2)CC1 [1-163],rate of killed adults,100%
CCNc1cc(C(F)(F)F)ccc1OC1CCN(c2ccc(C(F)(F)F)cn2)CC1 [1-172],rate of killed adults,100%
CCCNc1cc(C(F)(F)F)ccc1OC1CCN(c2ccc(C(F)(F)F)cn2)CC1 [1-173],rate of killed adults,100%
CCCN(CCC)c1cc(C(F)(F)F)ccc1OC1CCN(c2ccc(C(F)(F)F)cn2)CC1 [1-174],rate of killed adults,100%
CCC(=O)c1cc(C(F)(F)F)ccc1OC1CCN(c2ccc(C(F)(F)F)cn2)CC1 [1-179],rate of killed adults,100%
FC(F)(F)c1ccc(N2CCC(Oc3ccc(C(F)(F)F)cc3COC3CCCO3)CC2)nc1 (centres unmarked) [1-180],rate of killed adults,100%
CCCOc1cc(C(F)(F)F)ccc1OC1CCN(c2ccc(C(F)(F)F)cn2)CC1CCC (centres unmarked) [1-192],rate of killed adults,100%
"COc1cc(C(F)(F)F)ccc1OC1CC2CCC(C1)N2c1ccc(C(F)(F)F)cn1 (stereo not drawn) [2-77, 3α-[2-methoxy-4-(trifluoromethyl)phenoxy]-8-[5-(trifluoromethyl)-2-pyridyl]-8-azabicyclo[3.2.1]octane]",rate of killed adults,100%
CCOc1cc(C(F)(F)F)ccc1OC1CC2CCC(C1)N2c1ccc(C(F)(F)F)cn1 (centres unmarked) [2-78],rate of killed adults,100%
CCCOc1cc(C#N)ccc1OC1CC2CCC(C1)N2c1ccc(C(F)(F)F)cn1 (centres unmarked) [2-81],rate of killed adults,100%
"CCCOc1cc(C(F)(F)F)ccc1O[C@H]1C[C@H]2CC[C@@H](C1)N2c1ccc(C(F)(F)F)cn1 [2-82, 3α-[2-propoxy-4-(trifluoromethyl)phenoxy]-8-[5-(trifluoromethyl)-2-pyridyl]-8-azabicyclo[3.2.1]octane]",rate of killed adults,100%
"CCCOc1cc(C(F)(F)F)ccc1OC1CC2CCC(C1)N2c1ccc(C(F)(F)F)c[n+]1[O-] (stereo not drawn) [2-83, 3α-[2-propoxy-4-(trifluoromethyl)phenoxy]-8-[5-(trifluoromethyl)-2-pyridyl-1-oxy]-8-azabicyclo[3.2.1]octane]",rate of killed adults,100%
"CCCOc1cc(C(F)(F)F)ccc1OC1CC2CCC(C1)[N+]2([O-])c1ccc(C(F)(F)F)cn1 (stereo not drawn) [2-84, 3α-[2-propoxy-4-(trifluoromethyl)phenoxy]-8-oxy-8-[5-(trifluoromethyl)-2-pyridyl]-8-azabicyclo[3.2.1]octane]",rate of killed adults,100%
CCCOc1cc(C(F)(F)F)ccc1OC1CC2CCC(C1)N2c1ccc(Cl)cn1 (centres unmarked) [2-85],rate of killed adults,100%
CCCOc1cc(C(F)(F)F)ccc1OC1CC2CCC(C1)N2c1ccc(Br)cn1 (centres unmarked) [2-86],rate of killed adults,100%
CCCOc1cc(C(F)(F)F)ccc1OC1CC2CCC(C1)N2c1ccc(C)cn1 (centres unmarked) [2-89],rate of killed adults,100%
CCCOc1cc(C(F)(F)F)ccc1OC1CC2CCC(C1)N2c1ccc(C#N)cn1 (centres unmarked) [2-93],rate of killed adults,100%
CCCOc1cc(C(F)(F)F)cc(Cl)c1OC1CC2CCC(C1)N2c1ccc(C(F)(F)F)cn1 (centres unmarked) [2-95],rate of killed adults,100%
CC(C)Oc1cc(C(F)(F)F)ccc1OC1CC2CCC(C1)N2c1ccc(C(F)(F)F)cn1 (centres unmarked) [2-96],rate of killed adults,100%
CCCCOc1cc(C(F)(F)F)ccc1OC1CC2CCC(C1)N2c1ccc(C(F)(F)F)cn1 (centres unmarked) [2-97],rate of killed adults,100%
CC(C)COc1cc(C(F)(F)F)ccc1OC1CC2CCC(C1)N2c1ccc(C(F)(F)F)cn1 (centres unmarked) [2-98],rate of killed adults,100%
CCCCCOc1cc(C(F)(F)F)ccc1OC1CC2CCC(C1)N2c1ccc(C(F)(F)F)cn1 (centres unmarked) [2-100],rate of killed adults,100%
"COCOc1cc(C(F)(F)F)ccc1OC1CC2CCC(C1)N2c1ccc(C(F)(F)F)cn1 (stereo not drawn) [2-102, 3α-[2-methoxymethoxy-4-(trifluoromethyl)phenoxy]-8-[5-(trifluoromethyl)-2-pyridyl]-8-azabicyclo[3.2.1]octane]",rate of killed adults,100%
FC(F)(F)c1ccc(N2C3CCC2CC(Oc2ccc(C(F)(F)F)cc2OCC2CC2)C3)nc1 (centres unmarked) [2-105],rate of killed adults,100%
CC(C)(C)COc1cc(C(F)(F)F)ccc1OC1CC2CCC(C1)N2c1ccc(C(F)(F)F)cn1 (centres unmarked) [2-111],rate of killed adults,100%
COCCOc1cc(C(F)(F)F)ccc1OC1CC2CCC(C1)N2c1ccc(C(F)(F)F)cn1 (centres unmarked) [2-112],rate of killed adults,100%
OCCOc1cc(C(F)(F)F)ccc1OC1CC2CCC(C1)N2c1ccc(C(F)(F)F)cn1 (centres unmarked) [2-115],rate of killed adults,100%
COC(C)COc1cc(C(F)(F)F)ccc1OC1CC2CCC(C1)N2c1ccc(C(F)(F)F)cn1 (centres unmarked) [2-130],rate of killed adults,100%
FC(F)(F)c1ccc(N2C3CCC2CC(Oc2ccc(C(F)(F)F)cc2OCCCl)C3)nc1 (centres unmarked) [2-138],rate of killed adults,100%
C=CCOc1cc(C(F)(F)F)ccc1OC1CC2CCC(C1)N2c1ccc(C(F)(F)F)cn1 (centres unmarked) [2-141],rate of killed adults,100%
C#CCOc1cc(C(F)(F)F)ccc1OC1CC2CCC(C1)N2c1ccc(C(F)(F)F)cn1 (centres unmarked) [2-143],rate of killed adults,100%
C=CCCOc1cc(C(F)(F)F)ccc1OC1CC2CCC(C1)N2c1ccc(C(F)(F)F)cn1 (centres unmarked) [2-144],rate of killed adults,100%
"C=C(C)COc1cc(C(F)(F)F)ccc1OC1CC2CCC(C1)N2c1ccc(C(F)(F)F)cn1 (stereo not drawn) [2-147, 3α-[2-(2-methylallyloxy)-4-(trifluoromethyl)phenoxy]-8-[5-(trifluoromethyl)-2-pyridyl]-8-azabicyclo[3.2.1]octane]",rate of killed adults,100%
CC(C)(C)C(=O)Oc1cc(C(F)(F)F)ccc1OC1CC2CCC(C1)N2c1ccc(C(F)(F)F)cn1 (centres unmarked) [2-150],rate of killed adults,100%
CS(=O)(=O)Oc1cc(C(F)(F)F)ccc1OC1CC2CCC(C1)N2c1ccc(C(F)(F)F)cn1 (centres unmarked) [2-151],rate of killed adults,100%
CCS(=O)(=O)Oc1cc(C(F)(F)F)ccc1OC1CC2CCC(C1)N2c1ccc(C(F)(F)F)cn1 (centres unmarked) [2-152],rate of killed adults,100%
CN(C)S(=O)(=O)Oc1cc(C(F)(F)F)ccc1OC1CC2CCC(C1)N2c1ccc(C(F)(F)F)cn1 (centres unmarked) [2-155],rate of killed adults,100%
CN(C)C(=O)Sc1cc(C(F)(F)F)ccc1OC1CC2CCC(C1)N2c1ccc(C(F)(F)F)cn1 (centres unmarked) [2-157],rate of killed adults,100%
CCCN(CCC)c1cc(C(F)(F)F)ccc1OC1CC2CCC(C1)N2c1ccc(C(F)(F)F)cn1 (centres unmarked) [2-159],rate of killed adults,100%
CCCNc1cc(C(F)(F)F)ccc1OC1CC2CCC(C1)N2c1ccc(C(F)(F)F)cn1 (centres unmarked) [2-160],rate of killed adults,100%
